# US6703020B1 (Board of Regents, The University of Texas System, priority 1999, dated 2004)
# Key:
# VEGFR2 (KDR/Fc) = experiment: Coprecipitation assay, VEGF with VEGFR2/Fc; type: binding; conditions: 40 ng VEGF, 200 ng receptor/Fc
# Method: 200 ng of soluble forms of VEGFR1 (Flt-1/Fc) or VEGFR2 (KDR/Fc, R&D Systems, Minneapolis, Minn.) were added for a total volume of 50 μl and incubated for 2 hrs. The receptor/Fc constructs were precipitated using Protein A-sepharose beads and the resulting precipitate was washed 4 times with binding buffer.
# Reducing sample buffer was added to the pellet and supernatant of each reaction and both were analyzed by 12% SDS-PAGE and transferred to PVDF membranes. […] The soluble receptor/Fc constructs were also detected by using peroxidase-conjugated goat anti-human Fc (Kirkegaard & Perry Laboratories, Inc.)
# The receptor/Fc constructs were precipitated by incubation with Protein A sepharose beads. The precipitate was washed and resuspended in reducing sample buffer and separated by 12% SDS-PAGE and transferred to PVDF.
# [1] = Blood clearance of radioiodinated 2C3-GUS in mice; type: in vivo, mouse; conditions: intravenous
# Excerpt: 2C3-GUS was radioiodinated with ^125I to a specific activity of 5×10^6 cpm/μg.
# [2] = system: human NCI-H358 NSCLC tumors; experiment: Localization of 2C3-GUS in SCID mice bearing NCI-H358 tumors; type: in vivo, mouse
# [3] = system: Human tumor xenografts (NCI-H358 NSCLC, NCI-H460 NSCLC, HT29 colon adenocarcinoma, L540 Hodgkin's lymphoma); experiment: Immunohistochemistry on frozen sections of human tumor xenografts; type: binding, mouse; design: key: −, negative; +/−, very weak; 1+, weak; 2+, moderate; 3+, strong; 4+, very strong; conditions: acetone fixed frozen sections; 2C3 and 12D7 at 20 μg/ml, others 5-10 μg/ml
# Method: (§1) Guinea pig line 10 hepatocellular carcinoma tumor cells (obtained from Dr. Ronald Neuman, NIH, Bethesda, Md.) were grown in strain 2 guinea pigs (NCI, Bethesda, Md.). The human tumors NCI-H358 non-small cell lung carcinoma (NSCLC), NCI-H460 NSCLC (both obtained from Dr. Adi Gazdar, UT Southwestern, Dallas, Tex.), HT29 colon adenocarcinoma (American Type Culture Collection), and L540CY Hodgkin's lymphoma (obtained from Professor V. Diehl, Cologne, Germany) were grown as xenografts in CB17 SCID mice (Charles River, Wilmington, Mass.).
# (§2) Tumors were snap frozen in liquid nitrogen and stored at −70° C. Frozen samples of tumor specimens from patients were obtained from the National Cancer Institute Cooperative Human Tissue Network (Southern Division, Birmingham, Ala.). Immununohistochemistry was performed as described by Burrows et al. (1995).
# The immunohistochemical reactivity of 3E7, GV39M, and 11B5 on NCI-H358 human NSCLC xenografts was determined and compared with control antibodies (an IgG of irrelevant specificity; A-20, a rabbit anti-VEGF antibody; and MECA 32, a rat anti-mouse endothelial cell antibody). 8 μm frozen sections of NCI-H358 human NSCLC grown in SCID mice were stained using an indirect immunoperoxidase technique and were counterstained with hematoxylin.
# Human tumors (various) = experiment: Immunohistochemistry on frozen sections of human tumors; type: binding; design: key: −, negative; +/−, very weak; 1+, weak; 2+, moderate; 3+, strong; 4+, very strong; conditions: acetone fixed frozen sections; 2C3 and 12D7 at 20 μg/ml, others 5-10 μg/ml
# Method: as §2
# (§3) Tumors examined through immunohistochemistry were human tumors of various types from cancer patients, transplantable human tumor xenografts of various types grown in mice, guinea pig Line 10 tumor grown in guinea pig, and mouse 3LL tumor grown in mice (see legend to Table 3 for details).
# [4] = biological target: T1, guinea pig VEGF in line 10 guinea pig tumor sections (Cavia porcellus, UniProt P26617); experiment: Immunohistochemistry on guinea pig line 10 tumor sections; type: binding; design: key: −, negative; +/−, very weak; 1+, weak; 2+, moderate; 3+, strong; 4+, very strong; conditions: acetone fixed frozen sections; 2C3 and 12D7 at 20 μg/ml, others 5-10 μg/ml
# T1 construct: from tissue; host or cells: frozen sections of line 10 hepatocellular carcinoma grown in strain 2 guinea pigs
# T1 sequence (P26617 1-164): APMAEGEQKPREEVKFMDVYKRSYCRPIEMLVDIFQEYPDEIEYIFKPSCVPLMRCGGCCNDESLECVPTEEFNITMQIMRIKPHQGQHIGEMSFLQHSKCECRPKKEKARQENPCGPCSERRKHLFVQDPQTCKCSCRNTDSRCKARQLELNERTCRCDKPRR
# Method: as §1, §2
# [5] = system: mouse VEGF in mouse 3LL Lewis Lung carcinoma tumor sections; experiment: Immunohistochemistry on mouse 3LL tumor sections; type: binding; design: key: −, negative; +/−, very weak; 1+, weak; 2+, moderate; 3+, strong; 4+, very strong; conditions: acetone fixed frozen sections; 2C3 and 12D7 at 20 μg/ml, others 5-10 μg/ml
# mouse VEGF in mouse 3LL Lewis Lung carcinoma tumor sections, sequence (Q00731 205-317 limits assumed): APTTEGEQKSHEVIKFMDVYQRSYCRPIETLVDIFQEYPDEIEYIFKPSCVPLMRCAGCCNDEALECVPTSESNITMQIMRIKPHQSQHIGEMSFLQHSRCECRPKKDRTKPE
# Method: as §2, §3
# KDR on ABAE cells = experiment: 125I-VEGF binding studies on KDR expressing endothelial cells; type: cell-based, bovine
# [6] = system: NCI-H358 NSCLC and HT29 colon adenocarcinoma xenografts; experiment: In vivo localization to human tumor xenografts in mice; design: species or system mouse; key to Immunohistochemical Reactivity Heart / Immunohistochemical Reactivity Lung / Immunohistochemical Reactivity Liver / Immunohistochemical Reactivity Kidney / Immunohistochemical Reactivity Intestine / Immunohistochemical Reactivity Spleen / Immunohistochemical Reactivity Tumor: −, negative; +/−, very weak; 1+, weak; 2+, moderate; 3+, strong; 4+, very strong
# Method: Tumors were grown subcutaneously in immunocompromised mice (NCI-H358 NSCLC in nu/nu mice and HT29 colon adenocarcinoma in SCID mice) until the tumor volume was approximately 1 cm^3. 100 μg of unlabeled antibody for studies using SCID mice, or 100 μg of biotinylated antibody for studies using nude mice, was injected intravenously via a tail vein. Twenty four hours later, the mice were anesthetized, perfused with PBS, and tumor and organs including heart, lungs, liver, kidneys, intestines and spleen were collected and snap frozen in liquid nitrogen.
# The tumor and organs from each mouse were sectioned on a cryostat and stained for antibody immunohistochemically as above, with the exception that sections from the nude mice were developed using peroxidase labeled streptavidin-biotin complex (Dako, Carpinteria, Calif.) and the sections from the SCID mice were developed using two peroxidase-conjugated secondary antibodies, a goat anti-mouse IgG+IgM followed by a rabbit anti-goat IgG.
# 100 μg of GV39M and 3E7 or isotype-matched control IgG were injected into SCID mice bearing HT29 human colonic adenocarcinomas. Twenty-four hours later, the mice were sacrificed, exsanguinated and the tumors and tissues were removed.
# VEGFR2 (KDR/Flk-1) = experiment: ELISA of VEGF binding to VEGFR2-coated wells; design: species or system mouse
# VEGFR1 (FLT-1) = experiment: ELISA of VEGF binding to VEGFR1-coated wells
# NCI-H358 NSCLC = experiment: In vivo tumor growth inhibition, newly implanted NCI-H358; design: species or system mouse
# Method: (§4) Nu/nu mice were injected subcutaneously with either 1×10^7 NCI-H358 NSCLC cells or 5×10^6 A673 rhabdomyosarcoma cells on day 0. […] The tumors were then measured twice per wk for a period of approximately six wk for the NCI-H358 bearing mice and four wk for the A673 bearing mice. Tumor volume was calculated according to the formula: volume=L×W×H, where L=length, W=width, H=height.
# A673 rhabdomyosarcoma = experiment: In vivo tumor growth inhibition, newly implanted A673; design: species or system mouse; conditions: 100 μg i.p. 2 times per wk from day 1, nu/nu mice; controls approximately 1000 mm^3
# Method: as §4
# NCI-H358 NSCLC tumors = experiment: In vivo tumor therapy of established NCI-H358 xenografts; design: species or system mouse
# Method: (§5) Male nu/nu mice bearing subcutaneous NCI-H358 tumors or HT1080 fibrosarcoma 200-400 mm^3 in size were injected i.p. with test or control antibodies. The NCI-H358 bearing mice were treated with 100 μg of antibodies per injection three times a week during the first week and twice a week during the second and third week. The mice were then switched to 50 μg per injection every five days. The HT1080 bearing mice were treated with 100 μg of the indicated antibody or saline every other day throughout the duration of the study. In both studies, mice were sacrificed when their tumors reached 2500 mm^3 in size or earlier if tumors began to ulcerate.
# Doses were 50-100 μg every 3-5 days. […] In addition to measuring mean tumor volume (FIG. 4), photographs of the mice from each treatment group were also taken to show the differences in tumor size and appearance at the end of the study.
# HT1080 fibrosarcoma = experiment: In vivo tumor therapy of established HT1080 xenografts; design: species or system mouse; conditions: 100 μg every two days
# Method: as §5
# [7] = system: A673 rhabdomyosarcoma and LS174T colon adenocarcinoma tumors; experiment: Treatment of mice with established A673 and LS174T tumors; type: in vivo, mouse
# [8] = tumor-bearing mice, antibody intravenously 24 hours prior to sacrifice
substance,measurement,setting,value
2C3 F(ab′)2: F(ab′)2 of 2C3,blocking of binding of VEGF to VEGFR2/Fc in solution,VEGFR2 (KDR/Fc),blocked
2C3-GUS [Clone 2C3-GUS],t½ α of clearance from the blood,[1],about 6 hours
same,t½ β of clearance from the blood,[1],about 25 hours
same,localization after i.v. injection,"[2]; SCID mice, subcutaneous NCI-H358",specifically localized to tumor vasculature and surrounding tumor stroma
same,staining of normal tissues,"[2]; mouse, in vivo, sc",unstained
"2C3: anti-VEGF monoclonal antibody, IgG2a k, hybridoma ATCC PTA 1595; blocks VEGF binding to VEGFR2 but not VEGFR1 [Clone 2C3]",Endothelial Cell Staining Xenograft (various),[3],−
same,Endothelial Cell Staining Hu Tumor (various),Human tumors (various),−
same,Endothelial Cell Staining Guinea Pig Tumor (Line 10),[4],−
same,Endothelial Cell Staining Mouse Tumor (3LL),[5],−
same,blocking of 125I-VEGF binding to KDR,KDR on ABAE cells,blocks VEGF from binding to KDR in a concentration dependent manner
same,Immunohistochemical Reactivity Tumor,"[6]; 2C3: NCI-H358 in nu/nu mice, 3E7, GV39M: HT29 in SCID mice, 24 hours after i.v.",3+
same,localization in the HT29 human tumor model,[6]; after i.v. injection,localized strongly to the connective tissue
same,Immunohistochemical Reactivity Heart,[6]; [8],−
same,Immunohistochemical Reactivity Intestine,[6]; [8],−
same,Immunohistochemical Reactivity Kidney,[6]; [8],−
same,Immunohistochemical Reactivity Liver,[6]; [8],−
same,Immunohistochemical Reactivity Lung,[6]; [8],−
same,Immunohistochemical Reactivity Spleen,[6]; [8],−
same,Blocks VEGF from binding to VEGFR2,VEGFR2 (KDR/Flk-1),Yes
same,effect on VEGF binding to VEGFR2 in ELISA,VEGFR2 (KDR/Flk-1); 100-1000 fold excess,blocked
same,amount VEGF that bound to VEGFR2-coated ELISA wells maintained at,VEGFR2 (KDR/Flk-1); 100 fold molar excess over VEGF,about 92%
same,"amount VEGF that bound to VEGFR2-coated wells, % of amount bound in absence of antibody",VEGFR2 (KDR/Flk-1); 1000-fold molar excess over VEGF (1 nM),~19%
same,Blocks VEGF from binding to VEGFR1,VEGFR1 (FLT-1),No
same,"final tumor volume, NCI-H358 NSCLC","NCI-H358 NSCLC; 100 μg i.p. 2 times per wk from day 1, nu/nu mice, controls approximately 1000 mm^3",approximately 150 mm^3
same,prevention of tumor growth at lower doses,"NCI-H358 NSCLC; 10 or 1 μg twice per wk, NCI-H358 and A673",less effective
same,"final tumor volume, A673 rhabdomyosarcoma",A673 rhabdomyosarcoma,approximately 150 mm^3
same,mean tumor volume after approximately 14 wk of treatment,"NCI-H358 NSCLC tumors; established NCI-H358, 100 μg, prolonged treatment",84 mm^3
same,"mean tumor volume at the end of the study, % of the initial mean tumor volume","NCI-H358 NSCLC tumors; established NCI-H358, 50-100 μg i.p. every 3-5 days, approximately 10 weeks",30%
same,decrease in mean tumor volume,"NCI-H358 NSCLC tumors; established NCI-H358, approximately 14 wk",approximately 80%
same,mean tumor weight,"NCI-H358 NSCLC tumors; established NCI-H358, end of the study (day 116)",0.054 g
same,growth of HT1080 tumors,HT1080 fibrosarcoma,arrested the growth
same,growth of established A673 rhabdomyosarcoma and LS174T colon adenocarcinoma tumors,[7],significantly slowed
